Measurements published in paper PMC8795197, “Safety and activity of WX-0593 (Iruplinalkib) in patients with ALK- or ROS1-rearranged advanced non-small cell lung cancer: a phase 1 dose-escalation and dose-expansion trial” (Signal Transduction and Targeted Therapy, 2022).
Where two headings read alike, the source gives them in different places.

Legend:
Ba/F3 CD74-ROS1-S1986Y = assay: Growth of transfected Ba/F3 cells (CellTiter-Glo, 3 days); format: cell-based; conditions: Mus musculus, BaF3
Protocol: (§1) Harvest cells during the logarithmic growth period and count cells using blood counting chamber. Adjust cell concentration with culture medium. Add 90µl cell suspensions to two 96-well plates to the final cell density as described before. Incubate the plate overnight in humidified incubator at 37℃ with 5% CO2. Dispense 10µl drug solution (10×) to each well (triplicate for each concentration), and the DMSO final concentration in culture medium is 0.1% [v/v]. Culture the plates for 3 days.On Day 3, Read luminescent using Multi Label Reader. The software of GraphPad Prism was used to calculate IC50. The graphical curves were fitted using a nonlinear regression model with a sigmoidal dose response.

Ba/F3 CD74-ROS1-L1951R = assay: as above; format: cell-based; conditions: Mus musculus, BaF3
Protocol: as §1

Ba/F3 CD74-ROS1-D2033N = assay: as above; format: cell-based; conditions: Mus musculus, BaF3
Protocol: as §1

Ba/F3 CD74-ROS1-S1986F = assay: as above; format: cell-based; conditions: Mus musculus, BaF3
Protocol: as §1

[1] = system: NCI-H1975 (EGFR mutant L858R/T790M); assay: Cell proliferation inhibition assay; format: cell-based
Karpas299 (NPM-ALK) = assay: Cell proliferation inhibition assay; format: cell-based
Ba/F3 ALK-L1196M = assay: Growth of transfected Ba/F3 cells (CellTiter-Glo, 3 days); format: cell-based; conditions: Mus musculus, BaF3
Protocol: as §1, with “days. On” for “days.On”

Ba/F3 ALK-F1174L = assay: as above; format: cell-based; conditions: Mus musculus, BaF3
Protocol: as §1, with “days. On” for “days.On”

Ba/F3 ALK-G1202R = assay: as above; format: cell-based; conditions: Mus musculus, BaF3
Protocol: as §1, with “days. On” for “days.On”

Ba/F3 ALK-I1171T = assay: as above; format: cell-based; conditions: Mus musculus, BaF3
Protocol: as §1, with “days. On” for “days.On”

Ba/F3 ALK-I1171N = assay: as above; format: cell-based; conditions: Mus musculus, BaF3
Protocol: as §1, with “days. On” for “days.On”

Ba/F3 ALK-V1180L = assay: as above; format: cell-based; conditions: Mus musculus, BaF3
Protocol: as §1, with “days. On” for “days.On”

Ba/F3 ALK-G1269A = assay: as above; format: cell-based; conditions: Mus musculus, BaF3
Protocol: as §1, with “days. On” for “days.On”

Ba/F3 ALK-L1152R = assay: as above; format: cell-based; conditions: Mus musculus, BaF3
Protocol: as §1, with “days. On” for “days.On”

Ba/F3 ALK-T1151Tins = assay: as above; format: cell-based; conditions: Mus musculus, BaF3
Protocol: as §1, with “days. On” for “days.On”

Ba/F3 ALK-G1202del = assay: as above; format: cell-based; conditions: Mus musculus, BaF3
Protocol: as §1, with “days. On” for “days.On”

Ba/F3 ALK-C1156Y = assay: as above; format: cell-based; conditions: Mus musculus, BaF3
Protocol: as §1, with “days. On” for “days.On”

Ba/F3 ALK-I1171S = assay: as above; format: cell-based; conditions: Mus musculus, BaF3, ALK-I1171S
Protocol: as §1, with “days. On” for “days.On”

Ba/F3 ALK-L1152P = assay: as above; format: cell-based; conditions: Mus musculus, BaF3
Protocol: as §1, with “days. On” for “days.On”

Ba/F3 ALK-F1174C = assay: as above; format: cell-based; conditions: Mus musculus, BaF3, ALK-F1174C
Protocol: as §1, with “days. On” for “days.On”

Ba/F3 ALK-WT = assay: as above; format: cell-based; conditions: Mus musculus, BaF3
Protocol: as §1, with “days. On” for “days.On”

Ba/F3 (EML4-ALK-C1156Y) = assay: Cell proliferation inhibition assay; format: cell-based
Ba/F3 (EML4-ALK-WT) = assay: Cell proliferation inhibition assay; format: cell-based
[2] = system: Ba/F3 SLC34A2-ROS1-L2026M; assay: Growth of transfected Ba/F3 cells (CellTiter-Glo, 3 days); format: cell-based; conditions: Mus musculus, BaF3
Protocol: as §1

Ba/F3 SLC34A2-ROS1 = assay: as above; format: cell-based; conditions: Mus musculus, BaF3
Protocol: as §1

[3] = system: Ba/F3 SLC34A2-ROS1-G2032R; assay: as above; format: cell-based; conditions: Mus musculus, BaF3
Protocol: as §1

Ba/F3 (EML4-ALK-L1196M) = assay: Cell proliferation inhibition assay; format: cell-based
[4] = system: 27 non-target kinases (MAP4K4 ... INSR, EGFR wild type); assay: Inhibitory study of 27 non-target kinases; format: biochemical; conditions: except for EGFR wild type
[5] = system: patients treated with ALK TKIs; conditions: cited from earlier work
LU-01-0319R NSCLC PDX = assay: PDX model resistant to crizotinib; format: in vivo; conditions: WX-0593 2.5, 5, 10 mg/kg; ceritinib 10/20 mg/kg; brigatinib 10 mg/kg
[6] = system: NSCLC patients with ALK or ROS1 rearrangement; conditions: ALK-rearranged patients; cited from earlier work
Ba/F3 ALK-F1174V = assay: Growth of transfected Ba/F3 cells (CellTiter-Glo, 3 days); format: cell-based; conditions: Mus musculus, BaF3; ALK-F1174V; read-out: IC50
Protocol: as §1, with “days. On” for “days.On”

[7] = Grades 1 and 2 adverse reactions
[8] = serious adverse events in more than 2 patients

CCc1cc2c(cc1N1CCC(N3CCOCC3)CC1)C(C)(C)c1[nH]c3cc(C#N)ccc3c1C2=O [Alectinib]
IC50 (Ba/F3 CD74-ROS1-S1986Y): 10 µM
IC50 (Ba/F3 CD74-ROS1-L1951R): 5.41 µM
IC50 (Ba/F3 CD74-ROS1-D2033N): 5.07 µM
IC50 (Ba/F3 CD74-ROS1-S1986F): 10 µM

COc1cc(N2CCC(N3CCN(C)CC3)CC2)ccc1Nc1ncc(Cl)c(Nc2ccccc2P(C)(C)=O)n1 [Brigatinib]
growth inhibition [1]: somewhat inhibits the growth
growth inhibition (Karpas299 (NPM-ALK)): significantly inhibits the growth
IC50 (Ba/F3 ALK-L1196M): 0.031 µM
IC50 (Ba/F3 ALK-F1174L): 0.031 µM
IC50 (Ba/F3 ALK-G1202R): 0.34 µM
IC50 (Ba/F3 ALK-I1171T): 0.0189 µM
IC50 (Ba/F3 ALK-I1171N): 0.035 µM
IC50 (Ba/F3 ALK-V1180L): 0.0104 µM
IC50 (Ba/F3 ALK-G1269A): 0.031 µM
IC50 (Ba/F3 ALK-L1152R): 0.0104 µM
IC50 (Ba/F3 ALK-T1151Tins): 0.035 µM
IC50 (Ba/F3 ALK-G1202del): 1 µM
IC50 (Ba/F3 ALK-C1156Y): 0.039 µM
IC50 (Ba/F3 ALK-I1171S; first listing (r12)): 0.093 µM
IC50 (Ba/F3 ALK-I1171S; second listing (r19)): 0.04 µM
IC50 (Ba/F3 ALK-L1152P): 0.0015 µM
IC50 (Ba/F3 ALK-F1174C; first listing (r10)): 0.097 µM
IC50 (Ba/F3 ALK-F1174C; second listing (r15)): 0.0516 µM
IC50 (Ba/F3 ALK-WT): 0.025 µM
growth inhibition (Ba/F3 (EML4-ALK-C1156Y)): significantly inhibits the growth
growth inhibition (Ba/F3 (EML4-ALK-WT)): significantly inhibits the growth
IC50 (Ba/F3 CD74-ROS1-S1986Y): 0.0125 µM
IC50 (Ba/F3 CD74-ROS1-L1951R): 0.775 µM
IC50 [2]: 0.048 µM
IC50 (Ba/F3 CD74-ROS1-D2033N): 0.0365 µM
IC50 (Ba/F3 SLC34A2-ROS1): 0.022 µM
IC50 [3]: 0.846 µM
IC50 (Ba/F3 CD74-ROS1-S1986F): 0.0202 µM
growth inhibition (Ba/F3 (EML4-ALK-L1196M)): significantly inhibits the growth
inhibitory activity against non-target kinases [4]: no significant inhibitory activity
coughing [5, 7]: 26%
diarrhea [5, 7]: 36%
fatigue [5, 7]: 36%
headache [5, 7]: 26%
nausea [5, 7]: 45%
diarrhea, % of patients [5]: 41%
dose reduction due to TEAEs, % of patients [5]: 14%
DLTs in the tolerability study ([5]; one Grade 3 ALT increased, one Grade 4 dyspnea and Grade 3 hypoxia): Two
coughing [5, 8]: 4%
dyspnea [5, 8]: 4%
hypoxia [5, 8]: 4%
pleural effusion [5, 8]: 4%
pneumonia [5, 8]: 7%
anti-tumor effect (LU-01-0319R NSCLC PDX): significant effects against crizotinib-induced resistance

Cc1cc(Nc2ncc(Cl)c(Nc3ccccc3S(=O)(=O)C(C)C)n2)c(OC(C)C)cc1C1CCNCC1 [Ceritinib]
ORR [6]: 58%
IC50 (Ba/F3 ALK-L1196M; ALK-L1196M, read-out: IC50): 0.033 µM
IC50 (Ba/F3 ALK-F1174L; ALK-F1174L, read-out: IC50): 0.021 µM
IC50 (Ba/F3 ALK-G1202R; ALK-G1202R, read-out: IC50): 0.502 µM
IC50 (Ba/F3 ALK-I1171T; ALK-I1171T, read-out: IC50): 0.0278 µM
IC50 (Ba/F3 ALK-I1171N; ALK-I1171N, read-out: IC50): 0.0418 µM
IC50 (Ba/F3 ALK-V1180L; ALK-V1180L, read-out: IC50): 0.0156 µM
IC50 (Ba/F3 ALK-G1269A; ALK-G1269A, read-out: IC50): 0.016 µM
IC50 (Ba/F3 ALK-L1152R; ALK-L1152R, read-out: IC50): 0.116 µM
IC50 (Ba/F3 ALK-T1151Tins; ALK-T1151Tins, read-out: IC50): 0.096 µM
IC50 (Ba/F3 ALK-G1202del; ALK-G1202del, read-out: IC50): 0.925 µM
IC50 (Ba/F3 ALK-C1156Y; ALK-C1156Y, read-out: IC50): 0.087 µM
IC50 (Ba/F3 ALK-I1171S; first listing (r12), read-out: IC50): 0.097 µM
IC50 (Ba/F3 ALK-I1171S; second listing (r19), read-out: IC50): 0.0458 µM
IC50 (Ba/F3 ALK-L1152P; ALK-L1152P, read-out: IC50): 0.0715 µM
IC50 (Ba/F3 ALK-F1174V): 0.0537 µM
IC50 (Ba/F3 ALK-F1174C; first listing (r10), read-out: IC50): 0.095 µM
IC50 (Ba/F3 ALK-F1174C; second listing (r15), read-out: IC50): 0.0795 µM
IC50 (Ba/F3 ALK-WT; ALK-WT, read-out: IC50): 0.013 µM
IC50 (Ba/F3 CD74-ROS1-S1986Y): 0.0325 µM
IC50 (Ba/F3 CD74-ROS1-L1951R): 0.642 µM
IC50 [2]: 0.054 µM
IC50 (Ba/F3 CD74-ROS1-D2033N): 0.159 µM
IC50 (Ba/F3 SLC34A2-ROS1): 0.014 µM
IC50 [3]: 1.1 µM
IC50 (Ba/F3 CD74-ROS1-S1986F): 0.0496 µM
ALT increased [5, 7]: 35%
diarrhea [5, 7]: 75%
fatigue [5, 7]: 47%
nausea [5, 7]: 82%
vomiting [5, 7]: 65%
diarrhea, % of patients [5]: 75%
dose reduction due to TEAEs, % of patients [5]: 62%
anti-tumor effect (LU-01-0319R NSCLC PDX): significant effects against crizotinib-induced resistance
